Measurements from US20210244721A1, “SMALL MOLECULE ENTEROVIRUS INHIBITORS AND USES THEREOF” (priority 2020, published 2021).

Tested on: EV-D68 US/KY/14-18953 virus
Experiment: CPE assay, EV-D68 US/KY/14-18953 in RD cells
Type: cell-based, Enterovirus D68 (EV-D68)
Conditions: EV-D68 US/KY/14-18953, RD cells, CPE assay; read-out: EC50

Row | Compound | EC50 [µM]
1 | NCCNC(=O)c1cc(-c2cccs2)nc2ccccc12 [Compound 6bl, N-(2-aminoethyl)-2-(thiophen-2-yl)quinoline-4-carboxamide] | 0.4
2 | CN(C)CCNC(=O)c1cc(-c2ccco2)nc2ccccc12 [Compound 6bo, N-[2-(dimethylamino)ethyl]-2-(furan-2-yl)quinoline-4-carboxamide] | 1.1

Same assay, conditions: Enterovirus D, EVD68, RD, EV-D68 US/KY/14-18953, RD cells, CPE assay

Row | Compound | EC50 [µM]
3 | CN(C)CCNC(=O)c1cc(-c2ccco2)nc2ccccc12 [Compound 6bo, N-[2-(dimethylamino)ethyl]-2-(furan-2-yl)quinoline-4-carboxamide] | < 1

Same assay, conditions: Enterovirus D, EVD68, RD, EV-D68 US/KY/14-18953, RD cells, CPE assay; read-out: EC50

Row | Compound | EC50 [µM]
4 | CNCCNC(=O)c1cc(-c2ccccc2)nc2ccccc12 [Compound 6af, N-[2-(methylamino)ethyl]-2-phenylquinoline-4-carboxamide] | 0.9

Tested on: RD cells
Experiment: Cytotoxicity, neutral red method, RD cells
Conditions: RD cells, neutral red method

Row | Compound | CC50 [µM]
5 | CCOc1cc(C(=O)NCCN(CC)CC)c2ccccc2n1 [Compound 5b, N-[2-(diethylamino)ethyl]-2-ethoxyquinoline-4-carboxamide] | 165 ± 57.6
6 | CCN(CC)CCNC(=O)c1cc(OCC(F)(F)F)nc2ccccc12 [Compound 5c, N-[2-(diethylamino)ethyl]-2-(2,2,2-trifluoroethoxy)quinoline-4-carboxamide] | 33.1 ± 1.8
7 | CCCOc1cc(C(=O)NCCN(CC)CC)c2ccccc2n1 [Compound 5d, N-[2-(diethylamino)ethyl]-2-propoxyquinoline-4-carboxamide] | 46.7 ± 14.7
8 | CCC(C)Oc1cc(C(=O)NCCN(CC)CC)c2ccccc2n1 (centres unmarked) [Compound 5f, 2-(butan-2-yloxy)-N-[2-(diethylamino)ethyl]quinoline-4-carboxamide] | 15.7 ± 1.1
9 | CCN(CC)CCNC(=O)c1cc(OCC2CC2)nc2ccccc12 [Compound 5g, 2-(cyclopropylmethoxy)-N-[2-(diethylamino)ethyl]quinoline-4-carboxamide] | 38.5 ± 16.8
10 | CCC(CC)Oc1cc(C(=O)NCCN(CC)CC)c2ccccc2n1 [Compound 5h, N-[2-(diethylamino)ethyl]-2-(pentan-3-yloxy)quinoline-4-carboxamide] | 9.5 ± 1.1
11 | CCN(CC)CCNC(=O)c1cc(OC2CCCC2)nc2ccccc12 [Compound 5i, 2-(cyclopentyloxy)-N-[2-(diethylamino)ethyl]quinoline-4-carboxamide] | 11.7 ± 1.2
12 | CCOCCOc1cc(C(=O)NCCN(CC)CC)c2ccccc2n1 [Compound 5j, N-[2-(diethylamino)ethyl]-2-(2-ethoxyethoxy)quinoline-4-carboxamide] | 144 ± 40.5
13 | CCN(CC)CCNC(=O)c1cc(OCc2ccccc2)nc2ccccc12 [Compound 5k, 2-(benzyloxy)-N-[2-(diethylamino)ethyl]quinoline-4-carboxamide] | 13.5 ± 2.9
14 | CCN(CC)CCNC(=O)c1cc(-c2ccn[nH]2)nc2ccccc12 [Compound 6a, N-[2-(diethylamino)ethyl]-2-(1H-pyrazol-5-yl)quinoline-4-carboxamide] | 132 ± 53.3
15 | CCN(CC)CCNC(=O)c1cc(-c2cnn(C)c2)nc2ccccc12 [Compound 6b, N-[2-(diethylamino)ethyl]-2-(1-methyl-1H-pyrazol-4-yl)quinoline-4-carboxamide] | 251 ± 28.3
16 | CCN(CC)CCNC(=O)c1cc(-c2ccnn2C)nc2ccccc12 [Compound 6c, N-[2-(diethylamino)ethyl]-2-(1-methyl-1H-pyrazol-5-yl)quinoline-4-carboxamide] | 133 ± 28.7
17 | CCN(CC)CCNC(=O)c1cc(-c2c(C)noc2C)nc2ccccc12 [Compound 6h, N-[2-(diethylamino)ethyl]-2-(3,5-dimethyl-1,2-oxazol-4-yl)quinoline-4-carboxamide] | 129 ± 67.2
18 | CCN(CC)CCNC(=O)c1cc(-c2ccncc2)nc2ccccc12 [Compound 6i, N-[2-(diethylamino)ethyl]-2-(pyridin-4-yl)quinoline-4-carboxamide] | 174 ± 55.6
19 | CCN(CC)CCNC(=O)c1cc(-c2ccccc2OC)nc2ccccc12 [Compound 6k, N-[2-(diethylamino)ethyl]-2-(2-methoxyphenyl)quinoline-4-carboxamide] | 75.9 ± 6.4
20 | CCN(CC)CCNC(=O)c1cc(-c2ccc(COC)cc2)nc2ccccc12 [Compound 6n, N-[2-(diethylamino)ethyl]-2-[4-(methoxymethyl)phenyl]quinoline-4-carboxamide] | 46.6 ± 2.4

Row | Compound | CC50 [µM]
21 | CCN(CC)CCNC(=O)c1cc(-c2ccc(CN3CCOCC3)cc2)nc2ccccc12 [Compound 6o, N-[2-(diethylamino)ethyl]-2-{4-[(morpholin-4-yl)methyl]phenyl}quinoline-4-carboxamide] | 79.2 ± 8
22 | CCN(CC)CCNC(=O)c1cc(-c2cnc(N(C)C)nc2)nc2ccccc12 [Compound 6p, N-[2-(diethylamino)ethyl]-2-[2-(dimethylamino)pyrimidin-5-yl]quinoline-4-carboxamide] | 74.2 ± 7
23 | CCN(CC)CCNC(=O)c1cc(-c2cnc(OC)nc2)nc2ccccc12 [Compound 6q, N-[2-(diethylamino)ethyl]-2-(2-methoxypyrimidin-5-yl)quinoline-4-carboxamide] | 174 ± 20.3
24 | CCN(CC)CCNC(=O)c1cc(-c2ccc3c(c2)OCCO3)nc2ccccc12 [Compound 6t, N-[2-(diethylamino)ethyl]-2-(2,3-dihydro-1,4-benzodioxin-6-yl)quinoline-4-carboxamide] | 49.9 ± 13.8
25 | CCN(CC)CCNC(=O)c1cc(-c2ccc(-c3ccccc3)cc2)nc2ccccc12 [Compound 6u, 2-{[1,1′-biphenyl]-4-yl}-N-[2-(diethylamino)ethyl]quinoline-4-carboxamide] | 9.8 ± 0.5
26 | CC(C)Oc1cc(C(=O)NCCN(C)C)c2ccccc2n1 [Compound 8a, N-[2-(dimethylamino)ethyl]-2-(propan-2-yloxy)quinoline-4-carboxamide] | 38.5 ± 1.5
27 | CC(C)Oc1cc(C(=O)NCCN)c2ccccc2n1 [Compound 8b, N-(2-aminoethyl)-2-(propan-2-yloxy)quinoline-4-carboxamide] | 149 ± 15.3
28 | CC(C)Oc1cc(C(=O)NCCCN(C)C)c2ccccc2n1 [Compound 8c, N-[3-(dimethylamino)propyl]-2-(propan-2-yloxy)quinoline-4-carboxamide] | 122 ± 39.2
29 | CC(C)Oc1cc(C(=O)NCCN2CCCC2)c2ccccc2n1 [Compound 8e, 2-(propan-2-yloxy)-N-[2-(pyrrolidin-1-yl)ethyl]quinoline-4-carboxamide] | 36.9 ± 20.1
30 | CC(C)Oc1cc(C(=O)NCCN2CCN(C)CC2)c2ccccc2n1 [Compound 8f, N-[2-(4-methylpiperazin-1-yl)ethyl]-2-(propan-2-yloxy)quinoline-4-carboxamide] | 88.8 ± 21.5
31 | CC(C)Oc1cc(C(=O)NC2CCN(C)CC2)c2ccccc2n1 [Compound 8g, N-(1-methylpiperidin-4-yl)-2-(propan-2-yloxy)quinoline-4-carboxamide] | 101 ± 8.8
32 | CCN(CC)CCCNC(=O)c1cc(-c2ccccc2)nc2ccccc12 [Compound 10b, N-[3-(diethylamino)propyl]-2-phenylquinoline-4-carboxamide] | 45.4 ± 14
33 | O=C(NCCN1CCCC1)c1cc(-c2ccccc2)nc2ccccc12 [Compound 10g, 2-phenyl-N-[2-(pyrrolidin-1-yl)ethyl]quinoline-4-carboxamide] | 46.7 ± 8.3
34 | CN(C)CCCNC(=O)c1cc(-c2ccccc2)nc2ccccc12 [Compound 10h, N-[3-(dimethylamino)propyl]-2-phenylquinoline-4-carboxamide] | 44.9 ± 17.7
35 | CN(C)CCCNC(=O)c1cc(-c2cccs2)nc2ccccc12 [Compound 12b, N-[3-(dimethylamino)propyl]-2-(thiophen-2-yl)quinoline-4-carboxamide] | 40.5 ± 14
